Measurements taken from ChEMBL document CHEMBL1201862, “PubChem BioAssay data set” (2004).
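The compound was tested at five concentrations on cells cultured in 96-well plates, with a 48-hour exposure period. The concentration for 50% growth inhibition is given as GI50.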 Activity calls are given as the source filed them. Rule as the data show it: active = GI50 up to about 1.1 µM and inactive = higher.

Experiments:
Assay in all cases: NCI-60 cell line screen, 48 h
SNB-75 = system: SNB-75
SF-539 = system: SF-539
SK-OV-3 = system: SK-OV-3
SK-MEL-2 = system: SK-MEL-2
HT-29 = system: HT-29
SK-MEL-28 = system: SK-MEL-28
A498 = system: A498
SR = system: SR
UO-31 = system: UO-31
SF-268 = system: SF-268
NCI-H460 = system: NCI-H460
HOP-92 = system: HOP-92
SW-620 = system: SW-620
OVCAR-5 = system: OVCAR-5
HCT-116 = system: HCT-116
K562 = system: K562
EKVX = system: EKVX
MDA-MB-231 = system: MDA-MB-231
HCT-15 = system: HCT-15
OVCAR-8 = system: OVCAR-8

| SMILES | GI50 (SNB-75) | GI50 (SF-539) | GI50 (SK-OV-3) | GI50 (SK-MEL-2) | GI50 (HT-29) | GI50 (SK-MEL-28) | GI50 (A498) | GI50 (SR) | GI50 (UO-31) | GI50 (SF-268) | GI50 (NCI-H460) | GI50 (HOP-92) | GI50 (SW-620) | GI50 (OVCAR-5) | GI50 (HCT-116) | GI50 (K562) | GI50 (EKVX) | GI50 (MDA-MB-231) | GI50 (HCT-15) [µM] | GI50 (OVCAR-8) |
| --- | --- | --- | --- | --- | --- | --- | --- | --- | --- | --- | --- | --- | --- | --- | --- | --- | --- | --- | --- | --- |
| CC(C)C(Br)CCC1=CCC(Br)(Br)C1 (configuration not stated) | 10.9 µM (inactive) | 19.2 µM (inactive) | 13.1 µM (inactive) | 5.77 µM (inactive) | 13.5 µM (inactive) | 15.6 µM (inactive) | 18.8 µM (inactive) | 2.62 µM (inactive) | 10.2 µM (inactive) | 16.8 µM (inactive) | 16.7 µM (inactive) | 5.2 µM (inactive) | 3.52 µM (inactive) | 16.7 µM (inactive) | 14.6 µM (inactive) | 4.57 µM (inactive) | 17.9 µM (inactive) | 5.27 µM (inactive) | – | – |
| CC(SC(=S)N1CCOCC1)C(=O)Nc1nnc(-c2ccccc2)o1 (configuration not stated) | > 100 µM (inactive) | > 100 µM (inactive) | > 100 µM (inactive) | > 100 µM (inactive) | 61.1 µM (inactive) | > 100 µM (inactive) | > 100 µM (inactive) | 21.8 µM (inactive) | 53.2 µM (inactive) | – | > 100 µM (inactive) | – | 51.6 µM (inactive) | > 100 µM (inactive) | 93.3 µM (inactive) | 55.1 µM (inactive) | > 100 µM (inactive) | > 100 µM (inactive) | 29.7 | > 100 µM (inactive) |
| CCCCCCCCCCCCCCCCCc1cccc(OCOCCOC)c1C(=O)O | 15.5 µM (inactive) | 16.2 µM (inactive) | 14 µM (inactive) | 19.5 µM (inactive) | 17.1 µM (inactive) | 20.1 µM (inactive) | 17.8 µM (inactive) | 25.4 µM (inactive) | 17 µM (inactive) | 17.2 µM (inactive) | 21.5 µM (inactive) | 18.9 µM (inactive) | 20.3 µM (inactive) | 16.8 µM (inactive) | 19.4 µM (inactive) | 30.5 µM (inactive) | 18.9 µM (inactive) | 19.7 µM (inactive) | 19.3 | 16.4 µM (inactive) |
| S=c1[nH]nc(Cc2ccccc2)c(=S)[nH]1 | 23.1 µM (inactive) | > 76.4 µM (inactive) | > 81.5 µM (inactive) | > 43.1 µM (inactive) | > 51.8 µM (inactive) | > 68.2 µM (inactive) | > 42.9 µM (inactive) | > 65 µM (inactive) | 46.5 µM (inactive) | 4.63 µM (inactive) | > 52.5 µM (inactive) | 23.3 µM (inactive) | > 100 µM (inactive) | > 50.2 µM (inactive) | > 61 µM (inactive) | 61.1 µM (inactive) | – | 26.1 µM (inactive) | > 62.1 | > 61.2 µM (inactive) |
| O=C(c1ccccc1)N(CCCCNC(=O)C(F)(F)F)CCCNC(=O)C(F)(F)F | 32.6 µM (inactive) | > 100 µM (inactive) | > 100 µM (inactive) | – | > 100 µM (inactive) | > 100 µM (inactive) | > 100 µM (inactive) | 0.94 µM (active) | > 100 µM (inactive) | > 100 µM (inactive) | > 100 µM (inactive) | > 100 µM (inactive) | > 100 µM (inactive) | > 100 µM (inactive) | > 100 µM (inactive) | > 100 µM (inactive) | > 100 µM (inactive) | > 100 µM (inactive) | > 100 | > 100 µM (inactive) |
| C=CCC1(OC(C)=O)C2OC(=O)C1(O)OCC2O (configuration not stated) | > 39.9 µM (inactive) | > 100 µM (inactive) | > 100 µM (inactive) | > 100 µM (inactive) | > 100 µM (inactive) | > 100 µM (inactive) | > 100 µM (inactive) | > 100 µM (inactive) | > 100 µM (inactive) | > 100 µM (inactive) | > 100 µM (inactive) | – | > 100 µM (inactive) | > 100 µM (inactive) | > 100 µM (inactive) | > 100 µM (inactive) | > 100 µM (inactive) | > 100 µM (inactive) | > 100 | > 100 µM (inactive) |
| CC(=O)NC1=C(Sc2ccc(Cl)cc2)C(=O)c2ccccc2C1=O | – | 2.15 µM (inactive) | 15.7 µM (inactive) | 3.88 µM (inactive) | 12.2 µM (inactive) | 2.7 µM (inactive) | 3.5 µM (inactive) | 2.21 µM (inactive) | 1.95 µM (inactive) | 2.53 µM (inactive) | 8.34 µM (inactive) | 1.82 µM (inactive) | 1.95 µM (inactive) | 11.7 µM (inactive) | – | 2.56 µM (inactive) | 5.71 µM (inactive) | 3.04 µM (inactive) | 4.15 | 2.04 µM (inactive) |
| Cc1cc(C)n2nc3nc(N)c(C#N)c(-c4ccccc4)c3c2n1 | – | > 100 µM (inactive) | > 100 µM (inactive) | > 100 µM (inactive) | > 100 µM (inactive) | > 100 µM (inactive) | > 100 µM (inactive) | > 100 µM (inactive) | > 100 µM (inactive) | > 100 µM (inactive) | > 100 µM (inactive) | > 100 µM (inactive) | > 100 µM (inactive) | > 100 µM (inactive) | > 100 µM (inactive) | > 100 µM (inactive) | > 100 µM (inactive) | > 100 µM (inactive) | > 100 | > 100 µM (inactive) |
| O=C(CSc1nc2ccc(I)cc2c(=O)n1Cc1ccccc1)N/N=C/c1ccccc1 | 11.1 µM (inactive) | 26.9 µM (inactive) | 10.4 µM (inactive) | 12 µM (inactive) | 47.6 µM (inactive) | > 100 µM (inactive) | 15.2 µM (inactive) | 13.5 µM (inactive) | – | 10.6 µM (inactive) | 27 µM (inactive) | 11.5 µM (inactive) | > 100 µM (inactive) | 57 µM (inactive) | 33.9 µM (inactive) | 29.6 µM (inactive) | 26.6 µM (inactive) | 8.2 µM (inactive) | 22.1 | 17.9 µM (inactive) |
| COc1cc(/C=C2\Sc3scc(-c4cccc([N+](=O)[O-])c4)[n+]3C2=O)cc(OC)c1OC | 1.47 µM (inactive) | 8.89 µM (inactive) | 23.6 µM (inactive) | 17 µM (inactive) | 13.1 µM (inactive) | 16.1 µM (inactive) | 47 µM (inactive) | 2.05 µM (inactive) | 6.37 µM (inactive) | 11.8 µM (inactive) | 11 µM (inactive) | 11.3 µM (inactive) | 9.1 µM (inactive) | 20.8 µM (inactive) | 11.1 µM (inactive) | 4.54 µM (inactive) | 12.4 µM (inactive) | 7.29 µM (inactive) | – | 15.5 µM (inactive) |
| N#Cc1c(-c2ccccc2)cc(-c2ccc(Cl)cc2)[nH]c1=S | 37.1 µM (inactive) | – | 27.4 µM (inactive) | – | 37 µM (inactive) | 20.3 µM (inactive) | 22.6 µM (inactive) | 23.8 µM (inactive) | 24.8 µM (inactive) | 41.3 µM (inactive) | 32.5 µM (inactive) | 65.9 µM (inactive) | 28.4 µM (inactive) | 62.4 µM (inactive) | 33.1 µM (inactive) | 34 µM (inactive) | 30.4 µM (inactive) | 23.4 µM (inactive) | 25.8 | 43.6 µM (inactive) |
| CC1=C(C(=O)OC23CC4CC(CC(C4)C2)C3)C(c2ccccc2OC(F)F)C(C(=O)OC23CC4CC(CC(C4)C2)C3)=C(C)N1 (configuration not stated) | 43.7 µM (inactive) | > 100 µM (inactive) | > 100 µM (inactive) | > 100 µM (inactive) | > 100 µM (inactive) | > 100 µM (inactive) | > 100 µM (inactive) | > 100 µM (inactive) | > 100 µM (inactive) | > 100 µM (inactive) | > 100 µM (inactive) | > 100 µM (inactive) | > 100 µM (inactive) | > 100 µM (inactive) | > 100 µM (inactive) | – | > 10 µM (inactive) | > 100 µM (inactive) | > 100 | > 100 µM (inactive) |
| N#Cc1nn(C(N)=O)c(N)c1C#N | > 100 µM (inactive) | > 100 µM (inactive) | > 100 µM (inactive) | > 100 µM (inactive) | > 100 µM (inactive) | > 100 µM (inactive) | > 100 µM (inactive) | > 100 µM (inactive) | > 100 µM (inactive) | > 100 µM (inactive) | > 100 µM (inactive) | – | > 100 µM (inactive) | > 100 µM (inactive) | > 100 µM (inactive) | > 100 µM (inactive) | > 100 µM (inactive) | > 100 µM (inactive) | > 100 | > 100 µM (inactive) |
| C=CCN1C(=O)CC2[C@@H]3CCc4cc(O)ccc4C3CC[C@]2(C)C1=O (some centres not stated) | – | > 10 µM (inactive) | > 10 µM (inactive) | > 10 µM (inactive) | > 10 µM (inactive) | > 10 µM (inactive) | > 10 µM (inactive) | > 10 µM (inactive) | > 10 µM (inactive) | > 10 µM (inactive) | > 10 µM (inactive) | > 10 µM (inactive) | > 10 µM (inactive) | > 10 µM (inactive) | > 10 µM (inactive) | > 10 µM (inactive) | > 10 µM (inactive) | > 10 µM (inactive) | > 10 | > 10 µM (inactive) |
| CC(C)(O)[C@@H]1CC[C@](C)(C2[C@@H](O)C[C@@]3(C)C4C[C@H](OC5OCC(O)C(O)C5O)[C@H]5C(C)(C)[C@@H](OC6OCC(O)C(O)C6OC6OCC(O)C(O)C6O)CC[C@@]56C[C@@]46CC[C@]23C)O1 (some centres not stated) | > 100 µM (inactive) | > 100 µM (inactive) | > 100 µM (inactive) | > 100 µM (inactive) | > 100 µM (inactive) | > 100 µM (inactive) | > 100 µM (inactive) | > 100 µM (inactive) | > 100 µM (inactive) | > 100 µM (inactive) | > 100 µM (inactive) | – | > 100 µM (inactive) | > 100 µM (inactive) | > 100 µM (inactive) | > 100 µM (inactive) | > 100 µM (inactive) | > 100 µM (inactive) | > 100 | > 100 µM (inactive) |
